{
  "source": "patent US8609607B2",
  "about": "“Modified defensins and their use” (The United States of America as represented by the …, priority 2002, dated 2013)",
  "key": {"[1]": {"test_system": "Escherichia coli ATCC43827", "assay": "radial diffusion assay, antibacterial activity", "type": "cell-based", "conditions": "compared to unmodified HNP-1; 16-256 nM; FIG. 2A", "experimental": "(§1) The antibacterial activity of various concentrations of HNP-1 and ADP-ribosyl-HNP-1 (16 nM, 32 nM, 64 nM, 128 nM, 256 nM) on Escherichia coli ATCC43827 (American Type Culture Collection, Rockville, Md.) was evaluated by the radial diffusion assay (Takemura et al., Antimicrob. Agents Chemother. 40: 2280-2284, 1996). Antimicrobial activity was positively correlated with the diameter of a zone cleared of E. coli growth (minus the diameter of the central well (3 mm))."}, "[2]": {"test_system": "A549 cells", "assay": "chromium release assay, defensin cytotoxicity", "type": "cell-based", "conditions": "compared to unmodified HNP-1; 1.5-24 μM, 18 hours, 37° C.; FIG. 2B", "experimental": "(§2) Chromium (^51Cr)-labeled A549 cells (American Type Culture Collection) were incubated (18 hours, 37° C.) in 100 μl of serum-free RPMI (Gibco Fluids Inc., Rockville, Md.) containing various concentrations of HNP-1, synthetic HNP-1, or ADP-ribosyl-HNP-1 (1.5 μM, 3 μM, 6 μM, 12 μM, 24 μM) to quantify defensin cytotoxicity. Cytotoxicity was positively correlated with the amount of chromium released from lysed cells (Panyutich et al., Am. J. Respir. Cell. Mol. Biol. 12:351-357, 1995). Percent of lysis was calculated as (cpmexp−cpmspont)/(cpmmax−cpmspont)×100 (exp, experimental conditions; max, maximal release; spont, spontaneous release)."}, "[3]": {"test_system": "E. coli", "assay": "radial diffusion assay, effect of ADP-ribosylated HNP-1 on HNP-1 activity", "type": "cell-based", "conditions": "HNP-1 100 nM incubated 1 hour at 37° C. with 0-800 nM ADP-ribosylated HNP-1; FIG. 3A", "experimental": "as §1\nHNP-1 (100 nM) was incubated for 1 hour at 37° C. with various concentrations of ADP-ribosylated HNP-1 (0-800 nM) before the initiation of the E. coli radial diffusion assay. The radial diffusion assay was performed as described in Example 4."}, "[4]": {"test_system": "A549 cells", "assay": "chromium release assay, effect of ADP-ribosylated HNP-1 on HNP-1 cytotoxic activity", "type": "cell-based", "conditions": "HNP-1 12 μM incubated 1 hour at 37° C. with 0-12 μM ADP-ribosyl-HNP-1; FIG. 3B", "experimental": "as §2\nHNP-1 (12 μM) was incubated with various concentrations of ADP-ribosyl-HNP-1 (0-12 μM) for 1 hour at 37° C. before the initiation of the chromium release assay. The chromium release assay was performed as described in Example 5. HNP-1 and ADP-ribosyl-HNP-1 (0-12 μM) were included as controls."}, "[5]": {"test_system": "A549 cells", "assay": "IL-8 production by A549 cells (indirect ELISA)", "type": "cell-based", "conditions": "12 or 24 hours", "experimental": "A549 cells (3×10^4 cells per well) were incubated in a 96-well plate in 200 μl of serum-free RPMI medium (Gibco Fluids Inc) containing ADP-ribosyl-HNP-1 or HNP-1 (0.25, 0.75, 1.5, 3 μM). Culture medium was sampled after 12 or 24 hours of incubation and IL-8 content in the medium was assayed by indirect ELISA (FIGS. 4A and 4B) according to the manufacturer's instructions (R & D System Inc. Minneapolis, Minn.)."}, "[6]": {"test_system": "CD3+ T-cells", "assay": "T cell chemotaxis assay", "type": "cell-based, human", "conditions": "0.025 to 25 nM, 4 hours; compared to unmodified HNP; FIG. 4C", "experimental": "CD3^+ T-cells were isolated from human peripheral blood prepared by leukapheresis (NIH, Department of Transfusion Medicine, Bethesda, Md.) (Chertov et al, J. Biol. Chem. 271:2935-2940, 1996) and suspended in migration medium (RPMI 1640, 0.5% bovine serum albumin, 25 mM HEPES). Inserts coated with collagen IV (Becton Dickinson Labware, Bedford, Mass.) were placed into 24-well culture plates to form upper and a lower chambers in each well. Upper chambers were wetted with migration medium, then 500 μl of migration medium with or without ADP-ribosyl-HNP-1 or HNP-1 (0.025 to 25 nM) were added to the lower chamber. Cells were added to the upper chamber and plates were incubated at 37° C. in 5% CO2 for 4 hours. Cells incubated in the presence or absence of (macrophage inflammatory protein-1β) MIP-1β (5 ng/ml) were the positive and negative controls, respectively. Lymphocytes that had migrated to the lower chamber were harvested by centrifugation and counted in a hematocytometer. Chemotaxis percentage was calculated as follows: (number of cells migrated to the lower chamber in the experimental conditions−number of cells migrated in the negative control)/(number of cells migrated in the positive control−number of cells migrated in negative control)×100."}},
  "data": [
    {"substance": "ADP-ribosylated HNP-1: HNP-1 (SEQ ID NO:2) mono-ADP-ribosylated by ART-1 with NAD, at arginine 14", "values": [
      {"measurement": "antibacterial activity (diameter of zone cleared of E. coli growth)", "setting": "[1]", "value": "reduced antibacterial activity"},
      {"measurement": "cytotoxicity (lysis of 51Cr-labeled A549 cells)", "setting": "[2]", "value": "less cytotoxic than unmodified HNP-1"},
      {"measurement": "effect on antimicrobial/cytotoxic activity of HNP-1, radial diffusion assay", "setting": "[3]", "value": "blocked the cytotoxic activity of HNP-1 in a concentration-dependent manner"},
      {"measurement": "effect on cytotoxic activity of HNP-1, chromium release assay", "setting": "[4]", "value": "blocked the cytotoxic activity of HNP-1 in a concentration-dependent manner"},
      {"measurement": "IL-8 release into the medium versus unmodified peptide", "setting": "[5]; 0.75 μM peptide, P=0.01", "value": "significantly higher"},
      {"measurement": "IL-8 release into the medium versus unmodified peptide", "setting": "[5]; 1.5 μM peptide, P=0.01", "value": "significantly higher"},
      {"measurement": "IL-8 release into the medium versus unmodified peptide", "setting": "[5]; 3 μM peptide", "value": "no differences"},
      {"measurement": "ability to recruit T cells (chemotaxis)", "setting": "[6]", "value": "retained the ability to recruit T cells at a level that was comparable to unmodified HNP"}
    ]}
  ]
}
